According to patent publication US20090075937A1, “LHRH ANTAGONISTS FOR THE TREATMENT OF LOWER URINARY TRACT SYMPTOMS” (AETERNA ZENTARIS GmbH, priority 2007, published 2009):

What was measured:
[1] = system: study subjects; experiment: Peroral treatment of study subjects with tetrahydrocarbazole compounds: chemical (hormonal) castration (Examples 4-9); type: in vivo, human; conditions: 50 to 150 mg perorally daily as a single dose, schemes of 6 weeks to 6 months
Method: In the course of the present invention, the terms “hormone” and “hormonal” within for instance the terms “hormone castration”, “chemical (hormonal) castration” or “hormone withdrawal symptoms” refer to follicle stimulating hormone (FSH), luteinizing hormone (LH) and/or testosterone. Preferably, chemical (hormonal) castration is a testosterone castration and refers to a testosterone blood level of equal or below 1.2 ng/mL, preferably 0.5 ng/mL.
Study subjects are treated with compound (76) with the following doses according to the following administration schemes: • in a 3 month trial, 75 mg or 150 mg compound (76) administered perorally daily as a single dose on day 2-7 of the menstrual cycle • in a 3 months trial, 75 mg, 100 mg or 150 mg compound (76) administered perorally daily as a single dose on day 2-7 of the menstrual cycle followed by a 3 months treatment-free period • in a 6 months trial, 75 mg or 150 mg compound (76) administered perorally daily as a single dose • 50 mg or 150 mg per compound (76) administered daily as a single dose over 42 days (6 weeks)
Study subjects are treated with compound (68) with the following doses according to the following administration schemes: • in a 3 month trial, 75 mg or 150 mg compound (68) administered perorally daily as a single dose on day 2-7 of the menstrual cycle • in a 3 months trial, 75 mg, 100 mg or 150 mg compound (68) administered perorally daily as a single dose on day 2-7 of the menstrual cycle followed by a 3 months treatment-free period • in a 6 months trial, 75 mg or 150 mg compound (68) administered perorally daily as a single dose • 50 mg or 150 mg per compound (68) administered daily as a single dose over 42 days (6 weeks)
Study subjects are treated with compound 36 with the following doses according to the following administration schemes: • in a 3 month trial, 75 mg or 150 mg compound 36 administered perorally daily as a single dose on day 2-7 of the menstrual cycle • in a 3 months trial, 75 mg, 100 mg or 150 mg compound 36 administered perorally daily as a single dose on day 2-7 of the menstrual cycle followed by a 3 months treatment-free period • in a 6 months trial, 75 mg or 150 mg compound 36 administered perorally daily as a single dose • 50 mg or 150 mg per compound 36 administered daily as a single dose over 42 days (6 weeks)
Study subjects are treated with compound 37 with the following doses according to the following administration schemes: • in a 3 month trial, 75 mg or 150 mg compound 37 administered perorally daily as a single dose on day 2-7 of the menstrual cycle • in a 3 months trial, 75 mg, 100 mg or 150 mg compound 37 administered perorally daily as a single dose on day 2-7 of the menstrual cycle followed by a 3 months treatment-free period • in a 6 months trial, 75 mg or 150 mg compound 37 administered perorally daily as a single dose • 50 mg or 150 mg per compound 37 administered daily as a single dose over 42 days (6 weeks)
Study subjects are treated with compound 52 with the following doses according to the following administration schemes: • in a 3 month trial, 75 mg or 150 mg compound 52 administered perorally daily as a single dose on day 2-7 of the menstrual cycle • in a 3 months trial, 75 mg, 100 mg or 150 mg compound 52 administered perorally daily as a single dose on day 2-7 of the menstrual cycle followed by a 3 months treatment-free period • in a 6 months trial, 75 mg or 150 mg compound 52 administered perorally daily as a single dose • 50 mg or 150 mg per compound 52 administered daily as a single dose over 42 days (6 weeks)

[2] = system: study subjects; experiment: Peroral treatment of study subjects with tetrahydrocarbazole compounds: nocturia frequency, urgency to urinate, frequency of emptying (Examples 4-9); type: in vivo, human; conditions: 50 to 150 mg perorally daily as a single dose, schemes of 6 weeks to 6 months

chemical (hormonal) castration [1] | Compound | nocturia frequency, urgency to urinate and/or frequency of emptying compared to placebo [2]
successfully prevented | CCC(C)[C@H](NC(=O)Cc1ccccc1F)C(=O)N[C@]1(C(=O)N[C@H](C(N)=S)C(C)CC)CCc2[nH]c3c(C(F)(F)F)cccc3c2C1 (stereo partly drawn) [compound (76), (R)-3-{(S)-2-[2-(2-fluorophenyl)acetylamino]-3-methyl-pentanoylamino}-8-trifluoromethyl-2,3,4,9-tetrahydro-1H-carbazole-3-carboxylic acid ((S)-2-methyl-1-thiocarbamoylbutyl)amide] | decrease
successfully prevented | CCC(C)[C@H](NC(=O)Cc1ccccc1F)C(=O)N[C@]1(C(=O)N[C@H](C(=O)NCN2CCOCC2)C(C)CC)CCc2[nH]c3c(C(F)(F)F)cccc3c2C1 (stereo partly drawn) [Compound 36, (R)-3-{(S)-2-[2-(2-Fluoro-phenyl)-acetylamino]-3-methyl-pentanoylamino}-8-trifluoromethyl-2,3,4,9-tetrahydro-1H-carbazole-3-carboxylic acid {(S)-2-methyl-1-[(morpholin-4-ylmethyl)-carbamoyl]-butyl}-amide] | decrease
successfully prevented | CCC(C)[C@H](NC(=O)Cc1ccccc1F)C(=O)N[C@]1(C(=O)N[C@H](C(=S)NCC2CCOCC2)C(C)CC)CCc2[nH]c3c(C(F)(F)F)cccc3c2C1 (stereo partly drawn) [Compound 52, (R)-3-{(S)-2-[2-(2-Fluoro-phenyl)-acetylamino]-3-methyl-pentanoylamino}-8-trifluoromethyl-2,3,4,9-tetrahydro-1H-carbazole-3-carboxylic acid {(S)-2-methyl-1-[K(tetrahydro-pyran-4-ylmethyl)-thiocarbamoyl]-butyl}-amide] | decrease
successfully prevented | CCC(C)[C@H](NC(=O)Cc1ccccc1F)C(=O)N[C@]1(C(=O)N[C@H](C(=S)NCN2CCOCC2)C(C)CC)CCc2[nH]c3c(C(F)(F)F)cccc3c2C1 (stereo partly drawn) [Compound 37, (R)-3-{(S)-2-[2-(2-Fluoro-phenyl)-acetylamino]-3-methyl-pentanoylamino}-8-trifluoromethyl-2,3,4,9-tetrahydro-1H-carbazole-3-carboxylic acid {(S)-2-methyl-1-[(morpholin-4-ylmethyl)-thiocarbamoyl]-butyl}-amide] | decrease
successfully prevented | CCC(C)[C@H](NC(=O)Cc1ccccc1F)C(=O)N[C@]1(C(=O)N[C@H](C(=O)NNc2ccccc2)C(C)CC)CCc2[nH]c3c(C(F)(F)F)cccc3c2C1 (stereo partly drawn) [Compound 144, (R)-3-{(S)-2-[2-(2-Fluoro-phenyl)-acetylamino]-3-methyl-pentanoylamino}-8-trifluoromethyl-2,3,4,9-tetrahydro-1H-carbazole-3-carboxylic acid [(S)-2-methyl-1-(N′-phenyl-hydrazinocarbonyl)-butyl]-amide] | decrease
successfully prevented | CCC(C)[C@H](NC(=O)Cc1ccccc1F)C(=O)N[C@]1(C(=O)N[C@H](C(N)=S)C(C)CC)CCc2[nH]c3c(Cl)cc(F)cc3c2C1 (stereo partly drawn) [compound (68), (R)-8-chloro-6-fluoro-3-{(S)-2-[2-(2-fluorophenyl)acetylamino]-3-methyl-pentanoylamino}-2,3,4,9-tetrahydro-1H-carbazole-3-carboxylic acid ((S)-2-methyl-1-thiocarbamoylbutyl)amide] | decrease
